Measurements published in patent US20130143894A1 (vadel Pharma Inc., priority 2010, published 2013).
Counter-ions that a name gives are not always drawn.

What was measured:
[1] = cited from earlier work
[2] = Safety / tolerability in the relative bioavailability study; type: in vivo, human; conditions: oral spray doses of 10 mg, 20 mg, 30 mg and single oral dose of 25 mg (1×25 mg tablet), healthy adult subjects, under fed conditions
Procedure: Assessments include evaluation of changes in orthostatic hypotension, oral irritation, vital sign assessments, 12-lead electrocardiogram (ECG), and clinical assessments.
After dosing, the following activities were completed: • Both objective and subjective oral irritation assessments were performed immediately after dosing and at one hour after dose administration. • A fast was maintained until at least four hours after dosing. During the study confinement period, fluid consumption resumed no sooner than one hour after dose administration. […]
• Blood sample collections were obtained as per the profile. • Supine and standing blood pressure and heart rate was measured at approximately 24 hours after each dose. • All subjects were evaluated for the presence of any adverse events prior to release from the study site. • Prior to release, subjects were evaluated to ensure it was safe for them to be released from the study site. • Subjects were released from the study site at approximately 24 hours after dose administration.

SMILES | absolute bioavailability ([1]; after oral administration (tablet)) [%] | mean steady state volume of distribution (Vss) ([1]; in vivo) [L] | tolerability [2]
CCCc1nn(C)c2c(=O)[nH]c(-c3cc(S(=O)(=O)N4CCN(C)CC4)ccc3OCC)nc12 [sildenafil, 1-[[3-(6,7-dihydro-1-methyl-7-oxo-3-propyl-1H-pyrazolo[4,3-d]pyrimidin-5-yl)-4-ethoxyphenyl]sulfonyl]-4-methylpiperazine] | 41 | 105 | 
CCCc1nn(C)c2c(=O)[nH]c(-c3cc(S(=O)(=O)N4CCN(C)CC4)ccc3OCC)nc12 [sildenafil citrate] |  |  | well tolerated
